# Results: US10538547B2, “Mangiferin-6-O-calcium salt and preparation process thereof” (CHANGZHOU DEZE MEDICAL SCIENCE CO., LTD, priority 2016, dated 2020)
# Counter-ions that a name gives are not always drawn.
# What was measured:
# [1] = Physicochemical properties: solubility of the mangiferin-6-O-calcium salt
# Description: The mangiferin-6-O-calcium salt has the following structural formula: […]
# [2] = Acceleration test (accelerated stability); assay type: physicochemical; conditions: for Content / Morphology: 40°C±2°C, 75% RH±5% RH, sealed aluminum plastic bag
# Method: (§1) Test method: A sample of the mangiferin-6-O-calcium salt raw material was sealingly packaged with an aluminum plastic composition bag, placed at 40° C.±2° C. and 75% RH±5% RH conditions, pieces of the sample were taken at the time of 0, 3 and 6 months and the morphology and content thereof were tested.
# [3] = Room temperature long-term stability test; assay type: physicochemical; conditions: for Content / Morphology: 25°C±2°C, 60% RH±5% RH, sealed aluminum plastic bag
# Method: as §1, with “at 25°” for “at 40°”, “and 60%” for “and 75%”, “0, 3, 6, 9” for “0, 3”, “and 12” for “and 6”
compound,measurement,setting,value
O=c1c2cc(O)c(O)cc2oc2cc(O)c(C3OC(CO)C(O)C(O)C3O)c(O)c12 (stereo not drawn) [mangiferin-6-O-calcium salt],Solubility in diluted hydrochloric acid solution,[1]; diluted hydrochloric acid solution,slightly soluble
same,Solubility in hot water,[1]; hot water,soluble
same,Solubility in water,[1]; water,slightly soluble
same,Content,"[2]; batch 140618, 0 month",84.5%
same,Morphology,"[2]; batch 140618, 0 month",Light yellow-
same,Content,"[2]; batch 140618, 3 months",84.5%
same,Morphology,"[2]; batch 140618, 3 months",Light yellow-
same,Content,"[2]; batch 140618, 6 months",84.2%
same,Morphology,"[2]; batch 140618, 6 months",Light yellow-
same,"Stability conclusion, acceleration test",[2]; acceleration test condition for 6 months,stable properties
same,Content,"[3]; batch 140618, 0 month",84.5%
same,Morphology,"[3]; batch 140618, 0 month",Light yellow-green
same,Content,"[3]; batch 140618, 3 months",84.5%
same,Morphology,"[3]; batch 140618, 3 months",Light yellow-green
same,Content,"[3]; batch 140618, 6 months",84.3%
same,Morphology,"[3]; batch 140618, 6 months",Light yellow-
same,Content,"[3]; batch 140618, 9 months",84.6%
same,Morphology,"[3]; batch 140618, 9 months",Light yellow-
same,Content,"[3]; batch 140618, 12 months",84.2%
same,Morphology,"[3]; batch 140618, 12 months",Light yellow-
same,"Stability conclusion, room temperature",[3]; room temperature condition for 12 months,stable properties
